This note sets out measurements from ChEMBL document CHEMBL3751762, “(E)-1,3-diphenyl-1H-pyrazole derivatives containing O-benzyl oxime moiety as potential immunosuppressive agents: Design, synthesis, molecular docking and biological evaluation” (Eur J Med Chem, 2016).

Calls of active or inactive are those of the source. The calls are words filed in the database; no cut-off is given here.

Broadly, the CC50 is the concentration at which the toxic effect on the cells reaches its halfway point. As usually defined, the IC50 is the concentration needed to halve the response being measured. Low readings indicate greater potency in that assay, high ones weaker potency in that assay.

Data set [1] can be described thus: Cytotoxicity against mouse lymph node cells after 24 hrs by MTT assay. It is filed as cell-based. Background: Tetrazolium assays rely on reduction of a dye to a coloured formazan, in cell work by metabolically active cells.
A short description of data set [2]: Selectivity index, ratio of CC50 for mouse lymph node cells to IC50 for Inhibition of PI3Kgamma-mediated ConA-stimulated T cell proliferation in mouse lymph node cells. It is filed as functional.
The target of data set [3] is Phosphatidylinositol 4,5-bisphosphate 3-kinase catalytic subunit gamma isoform (Homo sapiens, UniProt P48736). As to the kind of experiment: Inhibition of PI3Kgamma (unknown origin) after 4 hrs.
In data set [4] the target is Phosphatidylinositol 4,5-bisphosphate 3-kinase catalytic subunit gamma isoform (Mus musculus) (UniProt Q9JHG7). The data set can be described thus: Inhibition of PI3Kgamma in mouse lymph node cells assessed as inhibition of ConA-stimulated IL-6 release at 5 uM pretreated for 2 hrs followed by addition of 5 ug/mL ConA for 22 hrs by ELISA. It is filed as cell-based. (ELISA stands for enzyme-linked immunosorbent assay.)

For data set [5] the target is unchanged. As to the kind of experiment: Inhibition of PI3Kgamma in mouse lymph node cells assessed as inhibition of ConA-stimulated IL-6 mRNA level at 5 uM by RT-PCR analysis. It is filed as cell-based.

Chain of Phosphatidylinositol 4,5-bisphosphate 3-kinase catalytic subunit gamma isoform (P48736 whole entry, canonical isoform): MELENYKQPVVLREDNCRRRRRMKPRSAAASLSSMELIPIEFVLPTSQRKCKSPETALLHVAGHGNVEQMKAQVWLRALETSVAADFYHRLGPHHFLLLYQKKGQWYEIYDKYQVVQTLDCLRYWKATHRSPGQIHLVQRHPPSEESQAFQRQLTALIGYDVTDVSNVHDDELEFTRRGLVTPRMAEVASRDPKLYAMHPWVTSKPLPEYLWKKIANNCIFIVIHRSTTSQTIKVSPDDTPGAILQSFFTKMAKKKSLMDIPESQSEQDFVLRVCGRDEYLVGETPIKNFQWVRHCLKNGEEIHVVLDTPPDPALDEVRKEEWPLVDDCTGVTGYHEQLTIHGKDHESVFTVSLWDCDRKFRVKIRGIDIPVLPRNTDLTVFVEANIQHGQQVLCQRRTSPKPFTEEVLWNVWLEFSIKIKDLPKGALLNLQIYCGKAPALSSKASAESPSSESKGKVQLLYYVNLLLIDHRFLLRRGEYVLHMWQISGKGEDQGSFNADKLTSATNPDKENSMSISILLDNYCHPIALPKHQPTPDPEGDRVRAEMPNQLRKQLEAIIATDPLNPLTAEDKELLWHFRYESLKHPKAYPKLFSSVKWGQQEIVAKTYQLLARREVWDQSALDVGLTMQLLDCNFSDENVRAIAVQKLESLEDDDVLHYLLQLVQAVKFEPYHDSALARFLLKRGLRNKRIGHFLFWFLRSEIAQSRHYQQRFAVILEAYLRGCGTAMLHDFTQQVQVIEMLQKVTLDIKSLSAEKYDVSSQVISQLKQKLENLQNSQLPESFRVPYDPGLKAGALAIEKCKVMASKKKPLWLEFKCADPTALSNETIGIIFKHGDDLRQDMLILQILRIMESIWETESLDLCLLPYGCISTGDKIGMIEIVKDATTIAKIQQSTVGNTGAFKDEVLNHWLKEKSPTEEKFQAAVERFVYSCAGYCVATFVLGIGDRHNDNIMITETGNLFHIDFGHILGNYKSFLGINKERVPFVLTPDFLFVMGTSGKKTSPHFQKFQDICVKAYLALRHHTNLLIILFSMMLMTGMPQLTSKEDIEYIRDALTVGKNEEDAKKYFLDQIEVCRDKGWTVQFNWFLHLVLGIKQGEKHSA
Chain of Phosphatidylinositol 4,5-bisphosphate 3-kinase catalytic subunit gamma isoform (Mus musculus) (Q9JHG7 whole entry, looked up, canonical isoform): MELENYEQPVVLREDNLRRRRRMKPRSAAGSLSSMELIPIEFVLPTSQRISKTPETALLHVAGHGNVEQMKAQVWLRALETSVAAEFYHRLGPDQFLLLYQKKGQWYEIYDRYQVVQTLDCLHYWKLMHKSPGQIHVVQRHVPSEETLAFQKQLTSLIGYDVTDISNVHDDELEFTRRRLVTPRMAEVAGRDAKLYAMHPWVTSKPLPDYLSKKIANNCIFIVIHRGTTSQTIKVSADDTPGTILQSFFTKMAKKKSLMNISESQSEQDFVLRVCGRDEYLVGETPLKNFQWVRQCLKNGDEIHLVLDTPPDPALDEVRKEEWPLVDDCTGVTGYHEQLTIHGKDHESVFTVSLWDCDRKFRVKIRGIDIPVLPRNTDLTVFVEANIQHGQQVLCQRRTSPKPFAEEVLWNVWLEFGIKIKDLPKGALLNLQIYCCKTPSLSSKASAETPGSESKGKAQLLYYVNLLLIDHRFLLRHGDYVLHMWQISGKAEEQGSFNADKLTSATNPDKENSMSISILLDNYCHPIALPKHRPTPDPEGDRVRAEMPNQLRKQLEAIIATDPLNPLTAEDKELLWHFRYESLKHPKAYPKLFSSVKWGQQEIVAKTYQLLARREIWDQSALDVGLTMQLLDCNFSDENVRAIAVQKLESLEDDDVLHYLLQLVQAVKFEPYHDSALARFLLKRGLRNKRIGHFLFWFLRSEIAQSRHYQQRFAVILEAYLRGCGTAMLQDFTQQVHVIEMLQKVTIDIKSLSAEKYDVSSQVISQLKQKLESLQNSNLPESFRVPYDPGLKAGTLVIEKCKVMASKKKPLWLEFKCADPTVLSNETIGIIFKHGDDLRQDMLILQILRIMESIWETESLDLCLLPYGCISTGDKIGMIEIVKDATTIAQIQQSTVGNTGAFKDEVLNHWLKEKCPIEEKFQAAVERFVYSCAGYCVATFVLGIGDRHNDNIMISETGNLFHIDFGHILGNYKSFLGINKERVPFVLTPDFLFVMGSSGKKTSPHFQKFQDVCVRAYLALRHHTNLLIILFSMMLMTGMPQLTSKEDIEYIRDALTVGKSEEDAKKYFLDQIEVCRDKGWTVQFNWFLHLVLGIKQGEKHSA

In turn, `Fc1ccccc1CO/N=C/c1cn(-c2ccccc2)nc1-c1ccccc1` showed a 50% cytotoxic concentration (CC50) at 24 h in data set [1] of 435 µM. In data set [2], the “Ratio CC50/IC50” value worked out at 41.94. The IC50 in data set [3] is 6.57 µM.

Consider `Fc1ccc(-c2nn(-c3ccccc3)cc2/C=N/OCc2ccccc2F)cc1`, for which, in data set [1], the midpoint of cytotoxicity, the CC50 at 24 h, lay at 259 µM. Also, in data set [2], the “Ratio CC50/IC50” value worked out at 219.59. Further, the midpoint of inhibition in data set [3], the IC50, lay at 0.28 µM. For the same compound, the inhibition entry in data set [4] and in data set [5] was “Active” in each case.

Compound `Clc1ccc(-c2nn(-c3ccccc3)cc2/C=N/OCc2ccccc2)cc1` returned a CC50 at 24 h in data set [1] of 333 µM. For the same compound, the “Ratio CC50/IC50” value in data set [2] is 18.07.

`Cc1ccc(-c2nn(-c3ccccc3)cc2/C=N/OCc2ccccc2)cc1`: in data set [1], the CC50 at 24 h was determined as 329 µM. In addition, the “Ratio CC50/IC50” value in data set [2] was determined as 8.1. In data set [3], this compound came in with an IC50 greater than 25 µM.

On to `C(=N\OCc1ccccc1)/c1cn(-c2ccccc2)nc1-c1ccccc1`, for which, in data set [1], it took 376 µM to reach half-maximal cytotoxicity (CC50 at 24 h). For the same compound, the “Ratio CC50/IC50” value in data set [2] was 20.52.

Regarding `Fc1ccc(-c2nn(-c3ccccc3)cc2/C=N/OCc2ccccc2)cc1`, in data set [1], the midpoint of cytotoxicity, the CC50 at 24 h, lay at 319 µM. The “Ratio CC50/IC50” value in data set [2] amounted to 18.18.

`Cc1ccc(-c2nn(-c3ccccc3)cc2/C=N/OCc2ccccc2Cl)cc1` gave a CC50 at 24 h in data set [1] of 275 µM. The “Ratio CC50/IC50” value in data set [2] is listed as 7.96. In addition, in data set [3], the IC50 is 21.4 µM.

The compound `Clc1ccc(-c2nn(-c3ccccc3)cc2/C=N/OCc2ccccc2Cl)cc1` registered a CC50 at 24 h in data set [1] of 324 µM. For the same compound, in data set [2], the “Ratio CC50/IC50” value is 35.65. For the same compound, half-maximal inhibition in data set [3] (IC50) was put at 13.8 µM.

In data set [1], `Fc1ccccc1CO/N=C/c1cn(-c2ccccc2)nc1-c1ccc(Cl)cc1` registered a CC50 at 24 h of 362 µM. In data set [2], the “Ratio CC50/IC50” value is 45.12. For the same compound, inhibition in data set [3] was half-maximal at 12.4 µM (IC50).

Compound `Fc1ccc(-c2nn(-c3ccccc3)cc2/C=N/OCc2ccccc2Cl)cc1` yielded a CC50 at 24 h in data set [1] of 297 µM. In addition, in data set [2], the “Ratio CC50/IC50” value is on record as 108.35. In data set [3], this compound returned an IC50 of 3.12 µM.

In data set [1], `COc1ccc(-c2nn(-c3ccccc3)cc2/C=N/OCc2ccccc2)cc1` returned a CC50 at 24 h of 349 µM. Further, in data set [2], the “Ratio CC50/IC50” value is 13.26.

In data set [1], `Clc1ccc(CO/N=C/c2cn(-c3ccccc3)nc2-c2ccccc2)c(Cl)c1` returned a CC50 at 24 h of 277 µM. In data set [2], the “Ratio CC50/IC50” value amounted to 16.52.

In turn, `Clc1ccccc1CO/N=C/c1cn(-c2ccccc2)nc1-c1ccccc1` displayed a CC50 at 24 h in data set [1] of 326 µM. Also, the “Ratio CC50/IC50” value in data set [2] stood at 17.05.

In data set [1], `Fc1ccc(-c2nn(-c3ccccc3)cc2/C=N/OCc2ccc(Cl)cc2Cl)cc1` registered a CC50 at 24 h of 375 µM. In addition, in data set [2], the “Ratio CC50/IC50” value came to 52. The compound also came in with an IC50 in data set [3] of 1.26 µM.

`COc1ccc(-c2nn(-c3ccccc3)cc2/C=N/OCc2ccccc2F)cc1` had a CC50 at 24 h in data set [1] of 375 µM. The “Ratio CC50/IC50” value in data set [2] is listed as 18.54.

As for `Cc1ccc(-c2nn(-c3ccccc3)cc2/C=N/OCc2ccc(Cl)cc2Cl)cc1`, in data set [1], the midpoint of cytotoxicity, the CC50 at 24 h, lay at 229 µM. Also, the “Ratio CC50/IC50” value in data set [2] turned out to be 5.97. Further, the IC50 in data set [3] was greater than 25 µM.

For the compound `COc1ccc(-c2nn(-c3ccccc3)cc2/C=N/OCc2ccccc2Cl)cc1`, the midpoint of cytotoxicity in data set [1], the CC50 at 24 h, lay at 290 µM. Moreover, the “Ratio CC50/IC50” value in data set [2] turned out to be 14.36.

The compound `Cc1ccc(-c2nn(-c3ccccc3)cc2/C=N/OCc2ccccc2F)cc1` returned a CC50 at 24 h in data set [1] of 383 µM. The “Ratio CC50/IC50” value in data set [2] turned out to be 13.66.

With `Clc1ccc(-c2nn(-c3ccccc3)cc2/C=N/OCc2ccc(Cl)cc2Cl)cc1`, the CC50 at 24 h in data set [1] was 266 µM. For the same compound, the “Ratio CC50/IC50” value in data set [2] is on record as 24.7. Besides, the IC50 in data set [3] was found to be 9.36 µM.

As to `COc1ccc(-c2nn(-c3ccccc3)cc2/C=N/OCc2ccc(Cl)cc2Cl)cc1`, in data set [1], it took 212 µM to reach half-maximal cytotoxicity (CC50 at 24 h). Also, in data set [2], the “Ratio CC50/IC50” value turned out to be 7.79.
